Drawing on the supplement of paper PMC10307832, this text covers relative viability for 5 cell lines.

Common to all, as to assay: relative viability (nuclei count vs DMSO), 5 days (fraction); higher = more cells survive
Compound in assay [1]: Cn1cc(-c2cnn3c(N)c(Br)c([C@@H]4CCCNC4)nc23)cn1 + CC(=O)Nc1cccc(-n2c(=O)n(C3CC3)c(=O)c3c(Nc4ccc(I)cc4F)n(C)c(=O)c(C)c32)c1 [Trametinib] (partner 0.02 µM)
The method in brief: (§1)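 Lung cancer cell lines, seeded in 1536-well plates, were treated the following day by pin tool with a single drug or with five library-drug doses (not always all listed) in √10 steps on top of a fixed anchor-drug dose. Cells were fixed and nuclei stained in one step after 5 days, and nuclei were counted. Relative viability is the nuclei count for treated wells divided by that for vehicle wells, reported as medians of duplicate plates.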

Compound in assay [2]: Cn1cc(-c2cnn3c(N)c(Br)c([C@@H]4CCCNC4)nc23)cn1 + CC1(C)CCC(c2ccc(Cl)cc2)=C(CN2CCN(c3ccc(C(=O)NS(=O)(=O)c4ccc(N[C@H](CCN5CCOCC5)CSc5ccccc5)c(S(=O)(=O)C(F)(F)F)c4)cc3)CC2)C1 [Navitoclax] (partner 0.5 µM)
In short, it runs like this:
as §1

Compound in assay [3]: Cn1cc(-c2cnn3c(N)c(Br)c([C@@H]4CCCNC4)nc23)cn1 + N=C(N)NC(=N)NCCc1ccccc1 [Phenformin] (partner 250 µM)
In short, it runs like this:
as §1

Compound in assay [4]: Cn1cc(-c2cnn3c(N)c(Br)c([C@@H]4CCCNC4)nc23)cn1 + Nc1nc2[nH]cc(CCc3ccc(C(=O)N[C@@H](CCC(=O)O)C(=O)O)cc3)c2c(=O)[nH]1 [Pemetrexed] (partner 0.2 µM)
In short, it runs like this:
as §1

As to NCI-H2126, the relative viability came out at 0.628 in assay [1] (first compound 0.05 µM); 0.549 in assay [1] (first compound 0.1581 µM); 0.548 in assay [1] (first compound 0.5 µM); 0.561 in assay [1] (first compound 1.581 µM); 0.597 in assay [1] (first compound 5 µM); 0.915 in assay [2] (first compound 0.05 µM). Moreover, the relative viability in assay [2] (first compound 0.1581 µM) turned out to be 0.883; in assay [2] (first compound 0.5 µM) it was 0.861; in assay [2] (first compound 1.581 µM), 0.804; in assay [2] (first compound 5 µM) it was 0.863; in assay [3] (first compound 0.05 µM) it was 0.492; in assay [3] (first compound 0.1581 µM), 0.543. Moreover, the relative viability in assay [3] (first compound 0.5 µM) was 0.51; in assay [3] (first compound 1.581 µM), 0.491; in assay [3] (first compound 5 µM), 0.47; in assay [4] (first compound 0.05 µM) it was 0.662; in assay [4] (first compound 0.1581 µM), 0.756; in assay [4] (first compound 0.5 µM), 0.753. The relative viability was determined as 0.566 in assay [4] (first compound 1.581 µM) and 0.454 in assay [4] (first compound 5 µM).

HCC-827: the relative viability came out at 0.499 in assay [1] (first compound 0.05 µM); 0.541 in assay [1] (first compound 0.1581 µM); 0.556 in assay [1] (first compound 0.5 µM); 0.549 in assay [1] (first compound 1.581 µM); 0.444 in assay [1] (first compound 5 µM); 1.03 in assay [2] (first compound 0.05 µM). Further, the relative viability in assay [2] (first compound 0.1581 µM) worked out at 1.04; in assay [2] (first compound 0.5 µM), 1.04; in assay [2] (first compound 1.581 µM), 1.01; in assay [2] (first compound 5 µM), 0.99; in assay [3] (first compound 0.05 µM), 0.289; in assay [3] (first compound 0.1581 µM), 0.452. The relative viability in assay [3] (first compound 0.5 µM) turned out to be 0.368; in assay [3] (first compound 1.581 µM), 0.388; in assay [3] (first compound 5 µM) it was 0.389; in assay [4] (first compound 0.05 µM) it was 0.269; in assay [4] (first compound 0.1581 µM), 0.202; in assay [4] (first compound 0.5 µM), 0.249. The figures for the relative viability in assay [4] (first compound 1.581 µM) and in assay [4] (first compound 5 µM) were 0.228 and 0.187, respectively.

With NCI-H3122, the relative viability amounted to 0.267 in assay [1] (first compound 0.05 µM); 0.236 in assay [1] (first compound 0.1581 µM); 0.212 in assay [1] (first compound 0.5 µM); 0.223 in assay [1] (first compound 1.581 µM); 0.257 in assay [1] (first compound 5 µM); 1.06 in assay [2] (first compound 0.05 µM). Also, the relative viability in assay [2] (first compound 0.1581 µM) came out at 1.05; in assay [2] (first compound 0.5 µM) it was 1.05; in assay [2] (first compound 1.581 µM), 1.03; in assay [2] (first compound 5 µM), 1.11; in assay [3] (first compound 0.05 µM), 0.374; in assay [3] (first compound 0.1581 µM), 0.62. Besides, the relative viability in assay [3] (first compound 0.5 µM) came to 0.383; in assay [3] (first compound 1.581 µM) it was 0.366; in assay [3] (first compound 5 µM), 0.383; in assay [4] (first compound 0.05 µM), 0.196; in assay [4] (first compound 0.1581 µM), 0.169; in assay [4] (first compound 0.5 µM) it was 0.158. In addition, the relative viability came to 0.147 in assay [4] (first compound 1.581 µM) and 0.164 in assay [4] (first compound 5 µM).

As for HOP-62, the relative viability in assay [1] (first compound 0.05 µM) was found to be 0.354; in assay [1] (first compound 0.1581 µM) it was 0.376; in assay [1] (first compound 0.5 µM) it was 0.404; in assay [1] (first compound 1.581 µM), 0.339; in assay [1] (first compound 5 µM), 0.34; in assay [2] (first compound 0.05 µM), 0.985. In addition, the relative viability was found to be 1.18 in assay [2] (first compound 0.1581 µM); 1.16 in assay [2] (first compound 0.5 µM); 0.97 in assay [2] (first compound 1.581 µM); 0.479 in assay [2] (first compound 5 µM); 0.648 in assay [3] (first compound 0.05 µM); 0.866 in assay [3] (first compound 0.1581 µM). Also, the relative viability in assay [3] (first compound 0.5 µM) worked out at 0.737; in assay [3] (first compound 1.581 µM) it was 0.527; in assay [3] (first compound 5 µM), 0.62; in assay [4] (first compound 0.05 µM), 0.309; in assay [4] (first compound 0.1581 µM), 0.252; in assay [4] (first compound 0.5 µM), 0.307. The relative viability amounted to 0.22 in assay [4] (first compound 1.581 µM) and 0.203 in assay [4] (first compound 5 µM).

On to HCC-44, for which the relative viability amounted to 0.998 in assay [1] (first compound 0.05 µM); 1.09 in assay [1] (first compound 0.1581 µM); 1.12 in assay [1] (first compound 0.5 µM); 1.08 in assay [1] (first compound 1.581 µM); 1.13 in assay [1] (first compound 5 µM); 0.94 in assay [2] (first compound 0.05 µM). The relative viability stood at 1.05 in assay [2] (first compound 0.1581 µM); 1.23 in assay [2] (first compound 0.5 µM); 0.916 in assay [2] (first compound 1.581 µM); 1.18 in assay [2] (first compound 5 µM); 0.155 in assay [3] (first compound 0.05 µM); 0.193 in assay [3] (first compound 0.1581 µM). For the same cell line, the relative viability in assay [3] (first compound 0.5 µM) was found to be 0.179; in assay [3] (first compound 1.581 µM) it was 0.188; in assay [3] (first compound 5 µM) it was 0.172; in assay [4] (first compound 0.05 µM), 0.608; in assay [4] (first compound 0.1581 µM), 0.586; in assay [4] (first compound 0.5 µM), 0.674. Also, the relative viability came to 0.321 in assay [4] (first compound 1.581 µM) and 0.369 in assay [4] (first compound 5 µM).
